In patent US8536196B2, “Substituted 1,3-dioxanes useful as PPAR modulators” (Evolva SA, priority 2007, dated 2013):

Assays:
[1] = molecular target: T1, PPARgamma (h) (Homo sapiens, UniProt P37231); test: Human recombinant (E. coli) PPARgamma (h) binding assay; settings: [3H]-rosiglitazone 10 nM, 120 min at 4° C.
T1 construct: host or cells: E. coli
T1 sequence (P37231 1-505): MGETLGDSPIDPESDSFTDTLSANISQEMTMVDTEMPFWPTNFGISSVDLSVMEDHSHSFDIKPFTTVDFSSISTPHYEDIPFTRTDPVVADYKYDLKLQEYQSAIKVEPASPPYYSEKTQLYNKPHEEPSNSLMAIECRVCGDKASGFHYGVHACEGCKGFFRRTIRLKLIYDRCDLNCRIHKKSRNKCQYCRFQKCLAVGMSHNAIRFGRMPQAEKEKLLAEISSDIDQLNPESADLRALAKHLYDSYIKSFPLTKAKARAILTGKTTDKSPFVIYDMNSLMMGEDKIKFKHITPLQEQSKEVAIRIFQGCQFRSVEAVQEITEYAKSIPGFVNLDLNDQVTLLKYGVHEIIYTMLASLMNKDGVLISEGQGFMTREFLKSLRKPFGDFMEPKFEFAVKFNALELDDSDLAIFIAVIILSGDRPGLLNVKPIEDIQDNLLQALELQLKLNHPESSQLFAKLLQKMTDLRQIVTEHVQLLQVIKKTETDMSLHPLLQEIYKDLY
Description: The results are expressed as a percent of control specific binding ((measured specific binding/control specific binding)×100) obtained in the presence of the test compounds. The IC50 values (concentration causing a half-maximal inhibition of control specific binding) and Hill coefficients (nH) were determined by non-linear regression analysis of the competition curves generated with mean replicate values using Hill equation curve fitting (Y=D+[(A D)/(1+(C/C50)nH)], where Y=specific binding, D=minimum specific binding, A=maximum specific binding, C=compound concentration, C50=IC50, and nH=slope factor). This analysis was performed using a software developed at Cerep (Hill software) and validated by comparison with data generated by the commercial software SigmaPlot® 4.0 for Windows® (© 1997 by SPSS Inc.). The inhibition constants (Ki) were calculated using the Cheng Prusoff equation (Ki=IC50/(1+(L/KD)), where L=concentration of radioligand in the assay, and KD=affinity of the radioligand for the receptor).

[2] = molecular target: T2, full length human PPARgamma (hPPARg2) (Homo sapiens, UniProt P37231); test: Transactivation assay with full length human PPARgamma; type: cell-based
T2 construct: expressed in transfected cells
T2 sequence (P37231 1-505): T1 sequence (P37231 1-505)
Description: When this assay was carried out essentially as described above but with the full length human PPARgamma rather than with the PPARgamma ligand binding domain, activation of full-length hPPARg2 was seen to 64% of the Avandia positive control (FIG. 3).

[3] = test system: human cervical carcinoma cell line (HeLa); test: Inhibition of cancer cell proliferation (flow cytometry); type: cell-based; settings: 48 hours of treatment, read-out: inhibition of proliferation of HeLa cells
Description: (§1) A human cervical carcinoma cell line (HeLa) engineered to stably express a recombinant biosensor reporter activity and a non-cancer cell line, HaCaT (Boukamp et al., 1988, J. Cell Biol 106(3):761-771) was used with a Caspa Tag kit (commercially available eg from Chemicon). The detection of proliferation was carried out using a high content screening automated flow cytometer.
(§2) DPD (Substance 1) was diluted to 20 μM in cell culture medium without serum adjusted to 1% DMSO. Detection of cellular events was performed in duplicate in 96-well plates after 48 hours of treatment in the FL2 (dilution of a proliferative marker) channels of a HTS flow cytometer (FACS Calibur HTS, Becton Dickenson). At day 1, cells were seeded in 96 well plates. Cells were treated with DPD and the appropriate controls on day 2 and analysis was carried out on day 4.

[4] = test system: HaCaT; test: Proliferation of non-cancer cell line (flow cytometry); type: cell-based; settings: 20 μM, 48 hours of treatment
Description: as §1, §2

[5] = test system: 3T3-L1 preadipocytes; test: Glucose uptake assay; type: cell-based
Description: This example illustrates that compounds identified as PPARgamma agonists also produce a physiological effect in cellular assays, expected of a PPARgamma agonist, namely an effect on glucose uptake. Glucose uptake assays are important to establish the suitability of a compound for the treatment of insulin resistance.
Briefly, 3T3-L1 preadipocytes are grown in 12-well plates until confluence. Cells are washed with serum-free DMEM and incubated with 1 ml of the same medium at 37° C. for 1-2 h. The cells are then washed with Krebs-Ringer-Hepes (KRP) buffer and then incubated with 0.9 ml KRP buffer at 37° C. for 30 min. Insulin is added to the cells at 0, 0.3, 1 and 3 nM final concentrations and incubated for 15 min at 37° C. Glucose uptake is initiated by the addition of 0.1 ml of Krebs-Ringer phosphate (KRP) buffer supplemented with 10 mM [^3H] 2-deoxy-D-glucose (1 mCi/l). After 10 min incubation at 37° C., the medium is aspirated and plates washed with ice-cold PBS to terminate the induced glucose uptake. The cells are lyzed with 0.5 ml 1% Triton X-100 and radioactivity levels determined using a scintillation counter. The results are depicted in FIG. 7.

[6] = molecular target: T3, mPPARdeltaLBD (Mus musculus, UniProt P35396); test: PPARdelta transactivation assay; type: cell-based
T3 construct: expressed in transfected cells
T3 sequence (P35396 210-438 limits assumed): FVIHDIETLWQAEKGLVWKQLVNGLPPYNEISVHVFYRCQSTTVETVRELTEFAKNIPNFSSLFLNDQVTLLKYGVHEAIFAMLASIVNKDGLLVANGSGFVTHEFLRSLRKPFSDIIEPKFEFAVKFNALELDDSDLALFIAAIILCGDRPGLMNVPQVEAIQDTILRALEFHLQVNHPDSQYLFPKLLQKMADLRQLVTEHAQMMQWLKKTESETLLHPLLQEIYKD
Description: This example describes a transactivation assay for determining PPARdelta modulating activity.
DPD and other ligands are tested for their ability to transactivate PPARdelta essentially as described in Example 22.

IC50 [1]: 21 µM | activation of full-length hPPARg2, % of the Avandia positive control [2]: 64% | increase in PPARdelta transactivation [6]: no or little increase in transactivation
Structure (SMILES): O=C(O)CC/C=C\CC1COC(c2ccccc2Cl)OC1c1ccccc1O (racemic) [SN1, (Z)-6-(-2-(2-chlorophenyl)-4-(2-hydroxyphenyl)-1,3-dioxan-5-yl)hex-4-enoic acid]
inhibition at 20 µM [3]: 90% | effect on non-cancer cell line HaCaT [4]: no effect | glucose uptake compared with Avandia [5]: same level of glucose uptake at 10 mM as Avandia at 1 mM
